Data as given in patent US4988708A, “Analgesic and anti-inflammatory 4-OH quinoline carboxylic acid derivatives” (Roussel Uclaf, priority 1984, dated 1991).
Read-outs that look alike come from different tables or passages of the source.

Experiments:
[1] = test system: chronic arthritis of adjuvant; test: Anti-inflammatory activity, chronic arthritis of adjuvant (preventative treatment); type: in vivo; settings: male rats, oral, day 0 to day before kill on day 17; for ED50: Rattus norvegicus, 408 h, read-out: DA50 (the source's name)
Description: A. Anti-inflammatory activity chronic arthritis of adjuvant (preventative treatment)
(§1) The injection of adjuvant of "Freund" type into a hind paw causes in rats the rapid appearance of a primary inflammatory lesion in this paw and then after a latent period of 13 to 15 days, causes a secondary arthritis affecting in particular the other hind paw. The test was carried out on male rats aged from 42 to 50 days which received by intraplantar injection 0.1 ml of adjuvant of "Freund"type (suspension in vaseline oil of 6 mg per ml. of killed mycobacterium butyricum). The animals received the product studied orally from day 0 (day of the injection of the adjuvant) until the day before they were killed which occured on day 17. The arthritic control animals and normal control animals received only the vehicle. The assessment criteria of the activity of the substances studied were the increase in the volume of hind paws injected (primary and secondary inflammation) and not injected (secondary inflammation) in comparison with the average volume of paws corresponding to the normal controls. The DA50 was determined, that is to say, the dose which reduced the increase in volume of the hind paws of the treated animals in comparison to those of the control animals by 50% and the results are reported in the following Table.
C. Anti-inflammatory activity chronic arthritis of adjuvant (preventative treatment)
as §1, with “"Freund" type” for “"Freund"type”, “say” for “say,”, “50%.” for “50% and the results are reported in the following Table.”

stomachs = test: Gastric ulceration effect; type: in vivo; settings: female rats, oral, seven hours; graphically determined; maximum ulceration index is 300
Description: B. Gastric ulceration effect
The test was done on female rats weighing 120 to 150 g on a water diet for 24 hours at the time of the treatment divided into random groupd. The products were administered orally and seven hours later, the animals were killed and their stomachs opened along the great curvature, washed in an isotonic solution of sodium chloride and spread apart by wiping with a cotton pad soaked in the same solution. The degree of ulcerous lesions, in number and in size, was estimated on a scale from 0 to 3 by two observers unware of the treatments. The notation 1 indicated the presence of an obvious ulcer or of several punctiform ulcers.
To take in account also the percentage of rats having ulcers (degree of ulceration greater than 0.5, notation attributed to a hyperemia or to Petechiae often encountered in a control which had fasted) an ulceration index was calculated for each group according to the formula [formula]
The dose corresponding to an ulceration index of 100 or DU 100 was graphically determined (the maximum ulceration index is 300).

[2] = dose reducing increase in volume of hind paws by 50% (table, section A)

Compound | ED50 [1, 2] | other results
COCC(O)c1nc2c(C(F)(F)F)cccc2c(O)c1C(=O)Nc1nccs1 (stereo not shown) [Example 1, 4-hydroxy-2-(1-hydroxy-2-methoxy-ethyl)-N-(2-thiazolyl)-8-(trifluoromethyl)-3-quinoline carboxamide] | 2 mg/kg | –
CC(O)C(O)c1nc2c(C(F)(F)F)cccc2c(O)c1C(=O)Nc1nccs1 (stereo not shown) [Example 3, 2-(1,2-dihydroxypropyl)-4-hydroxy-N-(2-thiazolyl)-8-trifluoromethyl-3-quinoline carboxamide] | 3 mg/kg | –
CCC(O)c1nc2c(C(F)(F)F)cccc2c(O)c1C(=O)Nc1nccs1 (single isomer, unassigned; isomer b) [Step A of Example 27 (B-isomer), 4-hydroxy-2-(1-hydroxypropyl)-N-(2-thiazolyl)-8-trifluoromethyl-3-quinoline carboxamide isomer B] | – | ED50 ([1]; dose reducing increase in volume of hind paws by 50% (text, section C)): 0.5 mg/kg
CCC(=O)OCC(OC(=O)CC)c1nc2c(C(F)(F)F)cccc2c(O)c1C(=O)Nc1nccs1 (stereo not shown) [Example 4, 2-[1,2-bis-(1-oxopropoxy)ethyl]-4-hydroxy-N-(2-thiazolyl)-8-trifluoromethyl-3-quinolinecarboxamide] | 1 mg/kg | –
O=C(Nc1nccs1)c1c(C(O)CO)nc2c(C(F)(F)F)cccc2c1O (stereo not shown) [Example 2, 2-(1,2-dihydroxyethyl)-4-hydroxy-N-(2-thiazolyl)-8-trifluoromethyl-3-quinoline carboxamide] | 0.7 mg/kg | –
CCC(=O)OC(COC)c1nc2c(C(F)(F)F)cccc2c(O)c1C(=O)Nc1nccs1 (stereo not shown) [Example 5, 2-[2-methoxy-1-(1-oxopropoxy)-ethyl]-4-hydroxy-N-(2-thiazolyl)-8-trifluoromethyl-3-quinoline carboxamide] | 5 mg/kg | –
CCC(=O)OC(CC)c1nc2c(C(F)(F)F)cccc2c(O)c1C(=O)Nc1nccs1 (stereo not shown) [Example 12, 4-hydroxy-2-[1-(1-oxopropoxy)-propyl]-N-(2-thiazolyl)-8-(trifluoromethyl)-3-quinoline carboxamide] | 0.8 mg/kg | DU 100 (dose corresponding to an ulceration index of 100) (stomachs): greater than 300 mg/kg
CCC(OC(=O)c1cc2ccccc2[nH]1)c1nc2c(C(F)(F)F)cccc2c(O)c1C(=O)Nc1nccs1 (stereo not shown) [Example 28, 1-[4-hydroxy-3-{[(2-aminothiazolyl)-carbonyl]-8-trifluoromethyl2-quinolinyl]-propyl]1H-indole-2-carboxylate] | 2 mg/kg | –
CCCc1ncc(C(=O)OC(CC)c2nc3c(C(F)(F)F)cccc3c(O)c2C(=O)Nc2nccs2)s1 (stereo not shown) [Example 29] | – | DA50 ([1]; dose reducing increase in volume of hind paws by 50% (table, section A), 24480 min): 2 mg/kg
CCC(OC(=O)CN)c1nc2c(C(F)(F)F)cccc2c(O)c1C(=O)Nc1nccs1 (stereo not shown) [Example 16, 1-[4-hydroxy-3-[(2-thiazolylamino)-carbonyl]-8-(trifluoromethyl)-2quinolinyl]-propyl amino acetate dichlorohydride] | 1 mg/kg | –
CCCC(=O)OC(CC)c1nc2c(C(F)(F)F)cccc2c(O)c1C(=O)Nc1nccs1 (stereo not shown) [Example 17, 1-[4-hydroxy-3-[(2-thiazolylamino)-carbonyl]-8-trifluoromethyl)-2quinolinyl]-propyl butanoate] | 1.3 mg/kg | DU 100 (dose corresponding to an ulceration index of 100) (stomachs): greater than 300 mg/kg
